Source: ChEMBL document CHEMBL3784995, “Inhibitors of HIV-1 maturation: Development of structure-activity relationship for C-28 amides based on C-3 benzoic acid-modified triterpenoids” (Bioorg Med Chem Lett, 2016)
pEC50: −log10 of the molar value.

What was measured:
[1] = AUC (0 to 6 hrs) in cannula implanted rat at 5 mg/kg administered through oral gavage after 24 hrs by LC-MS/MS analysis; type: ADME, organism-based; design: dose 5 mg/kg, time < 6 hr, route oral; conditions: in vivo
[2] = Metabolic stability in rat liver microsomes at 0.5 uM by LC-MS/MS analysis in presence of NADPH; type: ADME
[3] = Metabolic stability in human liver microsomes at 0.5 uM by LC-MS/MS analysis in presence of NADPH; type: ADME
[4] = tested on: Human immunodeficiency virus 1; assay: Antiviral activity against wild type HIV1 NL4-3 habouring Gag protein delta V370 infected in human MT2 cells after 4 to 5 days by dual-luciferase reporter gene assay; type: functional, organism-based; conditions: Human immunodeficiency virus 1, NL4-3, MT2
[5] = tested on: Human immunodeficiency virus 1; assay: Antiviral activity against wild type BVM-resistant HIV1 NL4-3 habouring Gag protein V370M mutant infected in human MT2 cells after 4 to 5 days by dual-luciferase reporter gene assay; type: functional, organism-based; conditions: Human immunodeficiency virus 1, NL4-3, MT2
[6] = tested on: Human immunodeficiency virus 1; assay: Antiviral activity against wild type HIV1 NL4-3 infected in human MT2 cells after 4 to 5 days by dual-luciferase reporter gene assay; type: functional, organism-based; conditions: Human immunodeficiency virus 1, NL4-3, MT2
[7] = tested on: Human immunodeficiency virus 1; assay: Antiviral activity against wild type BVM-resistant HIV1 NL4-3 habouring Gag protein delta T371 infected in human MT2 cells after 4 to 5 days by dual-luciferase reporter gene assay; type: functional, organism-based; conditions: Human immunodeficiency virus 1, NL4-3, MT2
[8] = tested on: Human immunodeficiency virus 1; assay: Antiviral activity against wild type HIV1 NL4-3 habouring Gag protein V370A mutant infected in human MT2 cells after 4 to 5 days by dual-luciferase reporter gene assay; type: functional, organism-based; conditions: Human immunodeficiency virus 1, NL4-3, MT2
[9] = tested on: Human immunodeficiency virus 1; assay: Antiviral activity against wild type BVM-resistant HIV1 NL4-3 habouring Gag protein T371A mutant infected in human MT2 cells after 4 to 5 days by dual-luciferase reporter gene assay; type: functional, organism-based; conditions: Human immunodeficiency virus 1, NL4-3, MT2
in vivo = conditions: rat, iv, 1 mg/kg
Description: Volume of distribution at steady state in cannula implanted rat at 1 mg/kg, iv by LC-MS/MS analysis

[10] = Plasma clearance in cannula implanted rat at 1 mg/kg, iv by LC-MS/MS analysis; type: ADME, organism-based
[11] = (§1) Total AUC in cannula implanted rat at 5 mg/kg administered through oral gavage after 24 hrs by LC-MS/MS analysis; type: ADME, organism-based; design: dose 5 mg/kg, time AUCmax, route oral; conditions: in vivo
[12] = Cytotoxicity against human MT2 cells; type: cell-based
[13] = Plasma concentration in cannula implanted rat at 5 mg/kg administered through oral gavage after 24 hrs by LC-MS/MS analysis; type: ADME, organism-based
[14] = Cmax in cannula implanted rat at 5 mg/kg administered through oral gavage after 24 hrs by LC-MS/MS analysis; type: ADME, organism-based; design: dose 5 mg/kg, route oral; conditions: in vivo
[15] = Bioavailability in cannula implanted rat at 5 mg/kg administered through oral gavage after 24 hrs by LC-MS/MS analysis; type: ADME, organism-based; conditions: in vivo
Rattus norvegicus = assay: as §1; type: ADME, organism-based; design: dose 5 mg/kg, time AUCmax, route oral; conditions: in vivo, 24 h
[16] = tested on: Human immunodeficiency virus 1; assay: Antiviral activity against wild type HIV1 NL4-3 infected in human MT2 cells after 4 to 5 days by dual-luciferase reporter gene assay in presence of human serum albumin; type: functional, organism-based; conditions: Human immunodeficiency virus 1, NL4-3, MT2

SMILES | AUC(0-t) at 6 h [1] [µM·h] | half-life at 0.5 µM [2] [h] | half-life at 0.5 µM [3] [h] | pEC50 [4] | pEC50 [5] | pEC50 [6] | pEC50 [7] | pEC50 [8] | pEC50 [9] | Vd (in vivo) [L/kg] | clearance [10] [mL/min/kg] | AUC at 24 h [11] [µM·h] | CC50 [12] [nM] | concentration at 24 h [13] [nM] | Cmax [14] [nM] | bioavailability [15] [%] | AUC (Rattus norvegicus) [µM·h] | pEC50 [16]
C=C(C)[C@@H]1CC[C@]2(C(=O)NCCc3ccccn3)CC[C@]3(C)[C@H](CC[C@@H]4[C@@]5(C)CC=C(c6ccc(C(=O)O)cc6)C(C)(C)[C@@H]5CC[C@]43C)[C@@H]12 | 0.721 | > 2 | 0.717 | 6.38 | 7.21 | 7.82 | 7.42 | 7.72 | 7.72 | 1.1 | 3.2 | 1.23 | 8000 | 5 | 172 | 3 | – | –
C=C(C)[C@@H]1CC[C@]2(C(=O)NCCN(C)C)CC[C@]3(C)[C@H](CC[C@@H]4[C@@]5(C)CC=C(c6ccc(C(=O)O)cc6)C(C)(C)[C@@H]5CC[C@]43C)[C@@H]12 | 1.62 | > 2 | > 2 | 7.51 | 8.00 | – | 8.52 | – | 8.52 | 2.3 | 6.1 | – | 3000 | – | 396 | 17 | 3.814 | –
C=C(C)[C@@H]1CC[C@]2(C(=O)O)CC[C@]3(C)[C@H](CC[C@@H]4[C@@]5(C)CC[C@H](OC(=O)CC(C)(C)C(=O)O)C(C)(C)[C@@H]5CC[C@]43C)[C@@H]12 [BEVIRIMAT] | – | – | – | < 5.00 | – | – | – | – | 7.40 | – | – | – | – | – | – | – | – | –
C=C(C)[C@@H]1CC[C@]2(C(=O)NCCCN(C)C)CC[C@]3(C)[C@H](CC[C@@H]4[C@@]5(C)CC=C(c6ccc(C(=O)O)cc6)C(C)(C)[C@@H]5CC[C@]43C)[C@@H]12 | 0.116 | > 2 | > 2 | 7.30 | – | 8.70 | – | 8.05 | – | – | 8.3 | – | 500 | – | 36 | – | – | 8.52
C=C(C)[C@@H]1CC[C@]2(C(=O)NCCN(C(C)C)C(C)C)CC[C@]3(C)[C@H](CC[C@@H]4[C@@]5(C)CC=C(c6ccc(C(=O)O)cc6)C(C)(C)[C@@H]5CC[C@]43C)[C@@H]12 | 1.31 | > 2 | > 2 | 7.16 | – | 8.40 | – | 7.89 | – | – | 4.3 | – | 3000 | – | 302 | – | – | –
C=C(C)[C@@H]1CC[C@]2(C(=O)NCCC(=O)O)CC[C@]3(C)[C@H](CC[C@@H]4[C@@]5(C)CC=C(c6ccc(C(=O)O)cc6)C(C)(C)[C@@H]5CC[C@]43C)[C@@H]12 | 43.2 | > 2 | 1.88 | < 5.40 | – | 7.43 | – | 6.37 | – | 0.02 | 1.2 | 79.9 | 36000 | 137 | 9470 | 71 | – | 6.35
C=C(C)[C@@H]1CC[C@]2(C(=O)NCCN(CC)CC(=O)O)CC[C@]3(C)[C@H](CC[C@@H]4[C@@]5(C)CC=C(c6ccc(C(=O)O)cc6)C(C)(C)[C@@H]5CC[C@]43C)[C@@H]12 | 0.22 | > 2 | > 2 | 7.19 | – | 8.52 | – | 8.05 | – | – | 26.7 | – | 17000 | – | – | – | – | –
C=C(C)[C@@H]1CC[C@]2(C(=O)O)CC[C@]3(C)[C@H](CC[C@@H]4[C@@]5(C)CC=C(c6ccc(C(=O)O)cc6)C(C)(C)[C@@H]5CC[C@]43C)[C@@H]12 | – | – | – | < 5.22 | – | – | – | – | – | – | – | – | – | – | – | 4 | – | –
C=C(C)[C@@H]1CC[C@]2(C(=O)N(C)CCN(C)C)CC[C@]3(C)[C@H](CC[C@@H]4[C@@]5(C)CC=C(c6ccc(C(=O)O)cc6)C(C)(C)[C@@H]5CC[C@]43C)[C@@H]12 | 1.42 | 1.42 | > 2 | 7.60 | – | 8.22 | – | 7.42 | – | – | 2.2 | 6.87 | 3000 | 108 | 386 | 11 | – | 7.77
